ChEMBL document CHEMBL2203037, “Synthesis and Anti-influenza A Virus Activity of 2,2-Dialkylamantadines and Related Compounds” (ACS Med Chem Lett, 2012)
pEC50: −log10 of the molar value. Active and inactive are the calls of the source. The rule behind the calls is not given here.

Tests used:
[1] = Cytotoxicity against dog MDCK cells assessed as cell viability after 72 hrs by MTS assay; assay type: cell-based, Canis lupus familiaris
[2] = Cytotoxicity against dog MDCK cells assessed as cell morphology alterations; assay type: cell-based, Canis lupus familiaris
[3] = tested on: Mammalian orthoreovirus 1; assay: Antiviral activity against Reovirus-1 by cell based assay; assay type: functional, organism-based
Coxsackievirus B4 = assay: Antiviral activity against Coxsackievirus B4 by cell based assay; assay type: functional, organism-based
Punta Toro virus = assay: Antiviral activity against Punta Toro virus by cell based assay; assay type: functional, organism-based
Sindbis virus = assay: Antiviral activity against Sindbis virus by cell based assay; assay type: functional, organism-based
[4] = tested on: Vesicular stomatitis virus; assay: Antiviral activity against Vesicular stomatitis virus by cell based assay; assay type: functional, organism-based
Human respirovirus 3 = assay: Antiviral activity against Parainfluenza-3 virus by cell based assay; assay type: functional, organism-based
[5] = tested on: Respiratory syncytial virus; assay: Antiviral activity against Respiratory syncytial virus by cell based assay; assay type: functional, organism-based
Feline coronavirus = assay: Antiviral activity against Feline coronavirus by cell based assay; assay type: functional, organism-based
Vaccinia virus = assay: Antiviral activity against Vaccinia virus by cell based assay; assay type: functional, organism-based; settings: Orthopoxvirus vaccinia
Simplexvirus = assay: Antiviral activity against Herpes simplex virus by cell based assay; assay type: functional, organism-based
H3N2 subtype [6] = assay: Antiviral activity against Influenza A virus (A/HK/7/87 (H3N2)) infected in MDCK cells assessed as virus-induced cytopathic effect by MTS assay; assay type: functional, organism-based, A/Hong Kong/7/1987(H3N2); settings: Influenza A virus, A/Hong Kong/7/1987(H3N2), MDCK
H3N2 subtype [7] = assay: Antiviral activity against Influenza A virus (A/HK/7/87 (H3N2)) infected in MDCK cells assessed as virus-induced cytopathic effect measured 3 days post infection by microscopic analysis; assay type: functional, organism-based; settings: A/Hong Kong/7/1987(H3N2), 72 h

Compound	CC50 at 72 h [1]	MCC [2]	Activity [3]	Activity (Coxsackievirus B4)	Activity (Punta Toro virus)	Activity (Sindbis virus)	Activity [4]	Activity (Human respirovirus 3)	Activity [5]	Activity (Feline coronavirus)	Activity (Vaccinia virus)	Activity (Simplexvirus)	pEC50 (H3N2 subtype [6])	pEC50 (H3N2 subtype [7])
CCCC1(CCC)C2CC3CC(C2)CC1(N(C)C)C3	> 100 µM	≥ 100 µM	inactive	inactive	inactive	inactive	inactive	inactive	inactive	inactive	inactive	inactive	< 4.00	< 4.00
CC1(C)C2CC3CC(C2)CC1(N)C3	77 µM	167 µM	inactive	inactive	inactive	inactive	inactive	inactive	inactive	inactive	inactive	inactive	< 4.00	< 4.00
NC12CC3CC(CC(C3)C13CCCCC3)C2	4.7 µM	6 µM	inactive	inactive	inactive	inactive	inactive	inactive	inactive	inactive	inactive	inactive	< 4.00	< 4.00
CCCC1(CCC)C2CC3CC(C2)CC1(N)C3	2.9 µM	6 µM	inactive	inactive	inactive	inactive	inactive	inactive	inactive	inactive	inactive	inactive	< 4.00	< 4.00
CC1(C)C2CC3CC(C2)CC1(NCc1ccccc1)C3	1.1 µM	4 µM	inactive	inactive	inactive	inactive	inactive	inactive	inactive	inactive	inactive	inactive	< 4.00	< 4.00
CCNC12CC3CC(CC(C3)C1(C)C)C2	85 µM	200 µM	inactive	inactive	inactive	inactive	inactive	inactive	inactive	inactive	inactive	inactive	< 4.00	< 4.00
CN(Cc1ccccc1)C12CC3CC(CC(C3)C1(C)C)C2	0.7 µM	4 µM	inactive	inactive	inactive	inactive	inactive	inactive	inactive	inactive	inactive	inactive	< 4.00	< 4.00
CN(C)C12CC3(C)CC(CC3(C)C1)C2(C)C	> 100 µM	≥ 100 µM	inactive	inactive	inactive	inactive	inactive	inactive	inactive	inactive	inactive	inactive	< 4.00	< 4.00
